Literature values as cited in patent publication US12054562B2, “Cell-permeable inhibitory agent and methods of use thereof in treatment of cognitive and mood disorders” (priority 2015, dated 2024).

Assays:
α5GABAA receptor [1] = target: T1, α5GABAA receptor (Homo sapiens, UniProt P18507+P31644); details: cited from earlier work
T1 sequence (P31644 32-462): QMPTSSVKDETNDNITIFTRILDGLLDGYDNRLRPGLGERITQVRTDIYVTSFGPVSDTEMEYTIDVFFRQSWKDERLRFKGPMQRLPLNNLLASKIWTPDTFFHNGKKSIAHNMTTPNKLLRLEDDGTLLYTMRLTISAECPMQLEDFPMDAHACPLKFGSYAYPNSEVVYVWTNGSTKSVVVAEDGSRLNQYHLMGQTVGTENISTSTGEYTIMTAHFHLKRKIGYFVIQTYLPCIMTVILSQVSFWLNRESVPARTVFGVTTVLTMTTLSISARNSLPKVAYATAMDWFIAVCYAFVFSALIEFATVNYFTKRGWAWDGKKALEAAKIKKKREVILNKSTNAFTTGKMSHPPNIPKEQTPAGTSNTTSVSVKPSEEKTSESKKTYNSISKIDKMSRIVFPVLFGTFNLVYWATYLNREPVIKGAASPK
T1 sequence (P18507 40-467 limits assumed): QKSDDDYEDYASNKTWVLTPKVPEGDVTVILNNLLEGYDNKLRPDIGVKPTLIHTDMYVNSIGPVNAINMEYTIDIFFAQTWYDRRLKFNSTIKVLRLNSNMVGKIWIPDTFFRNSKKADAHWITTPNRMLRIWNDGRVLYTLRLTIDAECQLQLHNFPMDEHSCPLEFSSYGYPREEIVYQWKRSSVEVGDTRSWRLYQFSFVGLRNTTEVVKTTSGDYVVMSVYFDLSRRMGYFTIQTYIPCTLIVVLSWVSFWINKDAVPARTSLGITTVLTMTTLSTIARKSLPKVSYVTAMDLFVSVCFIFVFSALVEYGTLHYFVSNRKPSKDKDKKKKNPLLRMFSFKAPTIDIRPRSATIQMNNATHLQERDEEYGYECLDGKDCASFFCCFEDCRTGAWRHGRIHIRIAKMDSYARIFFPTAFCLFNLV
T1 sequence (P28472 26-473 partner): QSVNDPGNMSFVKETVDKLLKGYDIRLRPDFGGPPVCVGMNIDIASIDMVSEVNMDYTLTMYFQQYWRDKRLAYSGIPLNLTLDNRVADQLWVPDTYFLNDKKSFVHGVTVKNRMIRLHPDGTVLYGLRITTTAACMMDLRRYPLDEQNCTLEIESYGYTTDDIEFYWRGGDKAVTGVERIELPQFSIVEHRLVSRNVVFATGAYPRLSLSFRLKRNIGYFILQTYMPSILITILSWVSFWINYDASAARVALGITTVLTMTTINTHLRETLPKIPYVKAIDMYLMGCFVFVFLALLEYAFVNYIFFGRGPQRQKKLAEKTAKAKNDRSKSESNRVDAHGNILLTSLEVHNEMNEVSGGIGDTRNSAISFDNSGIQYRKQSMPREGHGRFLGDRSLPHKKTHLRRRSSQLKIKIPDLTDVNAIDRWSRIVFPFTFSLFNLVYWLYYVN

α5GABAA receptor [2] = target: T1, α5GABAA receptor; details: cited from earlier work; remark: listed apart in the source
patients = details: cited from earlier work
[3] = target: T2, al subunit-containing GABAA receptors (Homo sapiens, UniProt P14867+P18507); details: at high concentrations; cited from earlier work
T2 sequence (P14867 28-456): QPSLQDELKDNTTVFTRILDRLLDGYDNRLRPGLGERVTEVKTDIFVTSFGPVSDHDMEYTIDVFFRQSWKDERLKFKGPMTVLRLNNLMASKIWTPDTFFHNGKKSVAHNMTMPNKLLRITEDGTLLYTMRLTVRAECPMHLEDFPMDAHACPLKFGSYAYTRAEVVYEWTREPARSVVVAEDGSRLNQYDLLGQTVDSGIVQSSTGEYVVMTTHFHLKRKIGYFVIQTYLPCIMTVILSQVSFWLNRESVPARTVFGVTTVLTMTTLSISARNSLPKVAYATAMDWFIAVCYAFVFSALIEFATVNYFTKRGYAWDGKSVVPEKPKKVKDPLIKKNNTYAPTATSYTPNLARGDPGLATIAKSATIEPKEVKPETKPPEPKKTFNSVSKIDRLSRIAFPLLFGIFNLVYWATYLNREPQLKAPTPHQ
T2 sequence (P18507 40-467 limits assumed): T1 sequence (P18507 40-467 limits assumed)
T2 sequence (P28472 26-473 partner): T1 sequence (P28472 26-473 partner)

healthy subjects = details: cited from earlier work

Row | SMILES | efficacy for reducing α5GABAA receptor function (α5GABAA receptor [1]) | selectivity for α5GABAA receptors (α5GABAA receptor [2]) | reason clinical trial was stopped (patients) | action on al subunit-containing GABAA receptors [3] | ethanol-induced impaired performance (healthy subjects)
1 | CCOC(=O)c1ncn2c1[C@@H]1CCCN1C(=O)c1cc(OC)ccc1-2 [L-655,708] | relatively low efficacy | 30-70 fold |  |  | 
2 | Cc1cc(-c2nnc3c4ccccc4c(OCc4cn(C)nn4)nn23)no1 [α5IA] |  |  | renal toxicity | activates | improves
